Results taken from patent US8871751B2, “Compositions and methods relating to nuclear hormone and steroid hormone receptors including inhibitors of estrogen receptor alpha-mediated gene expression and inhibition of breast cancer” (The Board of Trustees of the University of Illinois, priority 2008, dated 2014).
pIC50: −log10 of the molar value. “And” between values parts separate entries of the source, which are not always exact repeats. Equal entries are not always repeated. Where two headings read alike, the source gives them in different places.

How the values were obtained:
PR = biological target: T1, PR (Homo sapiens, UniProt P06401); assay: PR transactivation, MMTV-luciferase reporter in T47D cells; assay type: cell-based
T1 construct: endogenous in cells; host or cells: T47D (stably transfected with GR and MMTV-luciferase)
T1 sequence (P06401 1-933): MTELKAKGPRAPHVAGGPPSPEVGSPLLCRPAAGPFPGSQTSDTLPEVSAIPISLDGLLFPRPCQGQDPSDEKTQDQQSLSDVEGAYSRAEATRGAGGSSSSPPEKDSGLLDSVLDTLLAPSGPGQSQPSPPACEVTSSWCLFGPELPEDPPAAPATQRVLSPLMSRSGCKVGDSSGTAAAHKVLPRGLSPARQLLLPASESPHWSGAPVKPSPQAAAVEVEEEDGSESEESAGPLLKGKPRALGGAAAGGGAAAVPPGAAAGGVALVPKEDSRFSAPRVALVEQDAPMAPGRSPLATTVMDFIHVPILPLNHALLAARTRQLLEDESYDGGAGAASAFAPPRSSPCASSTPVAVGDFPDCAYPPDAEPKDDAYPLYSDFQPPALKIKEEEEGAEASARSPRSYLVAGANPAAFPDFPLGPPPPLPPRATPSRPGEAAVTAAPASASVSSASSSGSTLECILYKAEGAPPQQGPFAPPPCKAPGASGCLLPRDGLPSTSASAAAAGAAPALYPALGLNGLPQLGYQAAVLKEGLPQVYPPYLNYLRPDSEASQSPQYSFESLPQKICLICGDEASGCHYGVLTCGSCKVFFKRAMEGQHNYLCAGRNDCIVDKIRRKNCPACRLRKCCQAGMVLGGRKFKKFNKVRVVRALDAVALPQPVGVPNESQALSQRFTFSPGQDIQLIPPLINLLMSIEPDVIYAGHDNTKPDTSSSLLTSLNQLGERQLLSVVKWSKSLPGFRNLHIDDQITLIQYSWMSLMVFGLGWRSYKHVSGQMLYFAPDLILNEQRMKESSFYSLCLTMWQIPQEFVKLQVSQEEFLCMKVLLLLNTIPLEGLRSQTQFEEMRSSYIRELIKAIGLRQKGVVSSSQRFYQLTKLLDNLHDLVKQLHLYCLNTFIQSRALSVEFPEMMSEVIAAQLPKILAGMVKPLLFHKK
Method: The T47D-KBluc cells stably express an (ERE)3-luciferase reporter gene (38). Cells were maintained in phenol red-free RPMI 1640 with 2 mM L-glutamine, 1.5 g/l sodium bicarbonate, 4.5 g/l glucose, 10 mM Hepes, pH 7.5, 1 mM sodium pyruvate, 10% FBS (Atlanta Biological, Atlanta, Ga.) and antibiotics. Four days before E2 induction, the cells were switched to the above medium, with 10% 2× charcoal-dextran-treated calf serum instead of FBS. 200,000 cells/well were transferred to each well of a 24-well plate. After 24 h the indicated concentrations of the test compounds were added in DMSO and E2 was added to 20 pM. After 24 h cells were washed once in PBS, and 150 μl 1× Passive Lysis Buffer (Promega, Madison Wis.) was used to lyse the cells. Luciferase activity was determined using firefly luciferase reagents from Promega (Madison, Wis.). T47D cells stably transfected to express GR and a mouse mammary tumor virus luciferase reporter that responds to liganded GR and PR were maintained and assayed in medium containing 5 nM progesterone for PR assays, or 2.5 nM dexamethsaone for GR assays, essentially as described (39).

AR = biological target: T2, AR (Homo sapiens, UniProt P10275); assay: AR-mediated gene expression, PSA-luciferase reporter in stable HeLa-AR cells; assay type: cell-based; details: for pIC50: 24 h
T2 construct: expressed in transfected cells; host or cells: HeLa (HeLa-AR / HeLaAR)
T2 sequence (P10275 1-920): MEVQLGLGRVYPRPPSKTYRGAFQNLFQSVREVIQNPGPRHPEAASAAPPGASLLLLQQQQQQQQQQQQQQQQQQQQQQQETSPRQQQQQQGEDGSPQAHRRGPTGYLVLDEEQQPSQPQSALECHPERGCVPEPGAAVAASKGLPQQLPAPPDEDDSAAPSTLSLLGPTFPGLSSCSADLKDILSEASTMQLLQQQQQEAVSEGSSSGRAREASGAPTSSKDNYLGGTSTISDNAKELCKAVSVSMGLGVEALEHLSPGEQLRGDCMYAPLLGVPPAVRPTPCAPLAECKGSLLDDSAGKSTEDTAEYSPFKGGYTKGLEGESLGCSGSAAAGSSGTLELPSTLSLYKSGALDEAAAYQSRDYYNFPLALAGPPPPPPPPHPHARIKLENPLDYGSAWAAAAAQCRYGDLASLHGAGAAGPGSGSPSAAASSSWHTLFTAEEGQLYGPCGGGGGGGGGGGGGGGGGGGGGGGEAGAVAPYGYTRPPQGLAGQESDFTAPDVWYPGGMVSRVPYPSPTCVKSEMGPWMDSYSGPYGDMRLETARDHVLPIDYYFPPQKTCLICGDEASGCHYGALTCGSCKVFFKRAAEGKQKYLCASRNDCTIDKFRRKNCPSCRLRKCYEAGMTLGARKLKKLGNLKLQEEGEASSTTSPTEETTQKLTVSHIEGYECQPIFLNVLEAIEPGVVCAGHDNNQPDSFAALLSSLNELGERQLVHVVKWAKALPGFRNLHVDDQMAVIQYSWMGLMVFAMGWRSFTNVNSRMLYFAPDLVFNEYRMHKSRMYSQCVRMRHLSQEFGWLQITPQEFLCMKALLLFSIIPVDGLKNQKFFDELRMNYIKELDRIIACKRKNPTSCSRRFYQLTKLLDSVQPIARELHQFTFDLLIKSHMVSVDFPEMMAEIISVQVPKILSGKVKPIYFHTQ
Method: FIG. 9. Effect of some Theophylline-related compounds on AR-mediated gene expression in stable HeLa-AR cells. Assays were performed as described for ER in the legend to FIG. 4 and PR/GR in FIG. 5. The cells were incubated with 80 pM DHT and the indicated concentration of each small molecule. Luciferase activity was measured after 24 hours. The data represent the mean±SEM for 3 separate experiments at each concentration.
Reporter Gene Assays. TPSF was identified by reporter gene assays comparing the ability of ˜200 compounds structurally related to TPBM (see reference 19) to inhibit transcription of a stably transfected (ERE)3-luciferase reporter gene in T47D-KBluc breast cancer cells (20). AR was assayed in stably transfected HeLa cells and GR was assayed in stably transfected T47D cells maintained as described above. Four days before each experiment the cells were switched to medium containing CD-treated serum as described above. The HeLaAR cells were plated at 100,000 cells/well and the T47D/A1-2 and T47D-KBluc cells were plated at 200,000 cells/well in 1 ml of their respective media in 24-well plates. After 24 hours the indicated concentrations of E2, dihydrotestosterone (DHT) or dexamethasone (Dex) and DMSO vehicle, with or without TPSF, were added to each well. After 24 hours, the cells were washed once in phosphate buffered saline and lysed using 100 μl of 1× Passive Lysis Buffer (Promega, Madison Wis.). Luciferase activity was determined using BrightGlo firefly luciferase reagent from Promega (Madison, Wis.).

[1] = HeLa-AR cells, 80 pM DHT, read-out: AR-IC50

| SMILES | effect on PR transactivation (PR; 5 nM progesterone, up to 30 μM) | AR at 10 μM (AR) | pIC50 (AR; [1]) | PR at 30 μM (PR) | pIC50 (AR; stably transfected HeLa cells, 1 μM DHT, read-out: IC50 for inhibition of AR gene expression (PSA-Luc)) |
| --- | --- | --- | --- | --- | --- |
| Cn1c(=O)c2nc(CSCc3ccccc3)[nH]c2n(C)c1=O [Compound 95910, 8-Benzylsulfanylmethyl-1,3-dimethyl-3,7-dihydro-purine-2,6-dione] | did not significantly inhibit | – | – | – | – |
| Cn1c(=O)c2[nH]c(SC3CCCCC3)nc2n(C)c1=S [Compound 95899, 8-Cyclohexylsulfanyl-1,3-dimethyl-2-thioxo-1,2,3,7-tetrahydro-purin-6-one] | – | 88 | 5.60 | 42 | – |
| Cn1c(=S)c2[nH]c(SCCCC(=O)c3ccc(F)cc3)nc2n(C)c1=O [TPSF, Butyrophenone, p-fluoro-4-(1,2,3,6,-tetrahydro-1,3-dimethyl-2-oxo-6-thionopurin-8-ylthio)] | – | – | – | – | 4.48 and 4.47 |
| Cn1c(=O)c2[nH]c(C3CC4CCC3C4)nc2n(C)c1=O (centres unmarked) [Compound 101807, 8-Bicyclo[2.2.1]hept-2-yl-1,3-dimethyl-3,7-dihydro-purine-2,6-dione] | – | 50 | 5.30 | 71 | – |
| CCCSc1nc2c([nH]1)c(=O)n(C)c(=S)n2C [Compound 95869, 1,3-Dimethyl-8-propylsulfanyl-2-thioxo-1,2,3,7-tetrahydro-purin-6-one] | – | 90 | 6.00 | 0 | – |
